IC50 data for 1 compound are collected here from patent US11571480B2, “Multi-ligand drug conjugates and uses thereof” (priority 2015, dated 2023).

Broadly, the IC50 is the point on the concentration scale where inhibition reaches its midpoint. Higher therefore signals weaker potency.

The test system of series [1] is ovarian cancer cell SKOV3. Description: Cytotoxicity test of conjugate LDC10H. The note with it: SKOV3, incubated 15-30 min, then 2-3 days. It is filed as cell-based, human. How it is done:
(§1) Culture medium: RPMI 1640 Medium, no folic acid
(§2) 1) human lung cancer cell H1299, ovarian cancer cell SKOV3, breast cancer cell line HCC1954, and human lung cancer cell H460 were incubated at 37° C., 5% CO2 in RPMI 1640 medium containing 10% fetal bovine serum, the cells were passaged every 2-3 days.
(§3) 2) human lung cancer cell H1299, ovarian cancer cell SKOV3, breast cancer cell line HCC1954, and human lung cancer cell H460 were plated at 1×10^3 cells per well (96-well plate) and incubated for 8-12 h at 37° C., 5% CO2.
(§4) 3) Stock solutions of LDC conjugates or control were prepared in PBS solution. 100 μL/well of serially diluted LDC conjugates or control was added to the cells in the plate and incubated for 15-30 min at 37° C., 5% CO2. The culture medium in the wells was then removed by aspiration and the cells were incubated in fresh culture medium without conjugates (150 μL/well) for 2-3 days at 37° C., 5% CO2.
(§5) 4) CellTiter 96® Aqueous One Solution Cell Proliferation Assay (Promega) was added to each well to measure the amount of […] cells, and the plate was incubated in an incubator for 1 h at 37° C., 5% CO2.
(§6) 5) the plate was read at 490 nm on a microplate reader, and the cell survivals were compared for cells with or without the treatment of LDC conjugates. The LDC drug concentrations that are required for 50% cell death (IC50 values) were determined.

Series [2] has as its system breast cancer cell line HCC1954. The experiment in a line: Cytotoxicity test of conjugate LDC10H. It is filed as cell-based, human. The settings on record: HCC1954, incubated 15-30 min, then 2-3 days. How it is done:
as §1, §2, §3, §4, §5, §6

The subject of series [3] is human gastric cancer cell N87. The experiment in a line: Cytotoxicity test of conjugate LDC13B. It is filed as cell-based. The settings on record: N87, incubated 15-30 min, then 2-3 days. How it is done: as §1
(§7) 1) human nasopharyngeal cancer cell line KB, human colon carcinoma HCT-116, human prostatic cancer cell PC-3, human gastric cancer cell line GTL-16, human endometrial cancer cell HEC-1A, and human gastric cancer cell N87 were incubated at 37° C., 5% CO2 in RPMI 1640 medium containing 10% fetal bovine serum, the cells were passaged every 2-3 days.
(§8) 2) human nasopharyngeal cancer cell line KB, human colon carcinoma HCT-116, human prostatic cancer cell PC-3, human gastric cancer cell line GTL-16, human endometrial cancer cell HEC-1A, and human gastric cancer cell N87 were plated at 1×10^3 cells per well (96-well plate) and incubated for 8-12 h at 37° C., 5% CO2.
as §4, §5, §6

Series [4] has as its system human gastric cancer cell line GTL-16. The experiment in a line: Cytotoxicity test of conjugate LDC13B. Format: cell-based. The note with it: GTL-16, incubated 15-30 min, then 2-3 days. The procedure:
as §1, §7, §8, §4, §5, §6

In series [5] the test system is human nasopharyngeal cancer cell line KB. The experiment in a line: Cytotoxicity test of conjugate LDC13B. Format: cell-based. The note with it: KB, incubated 15-30 min, then 2-3 days. How it is done:
as §1, §7, §8, §4, §5, §6

Series [6] has as its system human colon carcinoma HCT-116. Description: Cytotoxicity test of conjugate LDC13B. It is filed as cell-based. The note with it: HCT-116, incubated 15-30 min, then 2-3 days. How it is done:
as §1, §7, §8, §4, §5, §6

Series [7] concerns human endometrial cancer cell HEC-1A. The experiment in a line: Cytotoxicity test of conjugate LDC13B. It is filed as cell-based. The settings on record: incubated 15-30 min, then 2-3 days. The procedure: as §1, §7, §8, §4, §5, §6
The subject of series [8] is human prostatic cancer cell PC-3. Description: Cytotoxicity test of conjugate LDC13B. It is filed as cell-based. The settings on record: PC-3, incubated 15-30 min, then 2-3 days. How it is done:
as §1, §7, §8, §4, §5, §6

The subject of series [9] is human embryonic kidney cell 293A. Description: Cytotoxicity test of conjugate LDC11B. It is filed as cell-based. The settings on record: incubated 15-30 min, then 2-3 days. The procedure: as §1
(§9) 1) human lung cancer cell H460, ovarian cancer cell SKOV3, human embryonic kidney cell 293A were incubated at 37° C., 5% CO2 in RPMI 1640 medium containing 10% fetal bovine serum, the cells were passaged every 2-3 days.
(§10) 2) human lung cancer cell H460, ovarian cancer cell SKOV3, human embryonic kidney cell 293A were plated at 1×10^3 cells per well (96-well plate) and incubated for 8-12 h at 37° C., 5% CO2.
as §4, §5
(§11) 5) The plate was read at 490 nm on a microplate reader, and the cell survivals were compared for cells with or without the treatment of LDC conjugates. The LDC drug concentrations that are required for 50% cell death (IC50 values) were determined.

The test system of series [10] is human lung cancer cell H460. The experiment in a line: Cytotoxicity test of conjugate LDC11B. The note with it: H460, incubated 15-30 min, then 2-3 days. Format: cell-based. How it is done: as §1, §9, §10, §4, §5, §11
Series [11] relates to ovarian cancer cell SKOV3. Description: Cytotoxicity test of conjugate LDC10B. The settings on record: SKOV3, Incubation Time 30 min. Format: cell-based, human. The procedure: as §1
(§12) 1) human nasopharyngeal cancer cell line KB, melanoma cell line A375, human lung cancer cell H1299, chronic myeloid leukemia cell line K562, human lung cancer cell H460, ovarian cancer cell SKOV3, breast cancer cell line HCC1954, human gastric cancer cell N87, and human breast cancer cell SK-BR-3 were incubated at 37° C., 5% CO2 in RPMI 1640 medium containing 10% fetal bovine serum, the cells were passaged every 2-3 days.
(§13) 2) human nasopharyngeal cancer cell line KB, melanoma cell line A375, human lung cancer cell H1299, chronic myeloid leukemia cell line K562, human lung cancer cell H460, ovarian cancer cell SKOV3, breast cancer cell line HCC1954, human gastric cancer cell N87, and human breast cancer cell SK-BR-3 were plated at 1×10^3 cells per well (96-well plate) and incubated for 8-12 h at 37° C., 5% CO2.
(§14) 3) Stock solutions of LDC conjugates or controls were prepared in PBS solution. 100 μL/well of serially diluted LDC conjugates or controls was added to the test cells in the plates and incubated for 15-30 min at 37° C., 5% CO2. The culture medium in the wells was then removed by aspiration and the test cells were incubated in fresh culture medium without conjugates (150 μL/well) for 2-3 days at 37° C., 5% CO2.
(§15) 4) CellTiter 96® Aqueous One Solution Cell Proliferation Assay (Promega) was added to each well to measure the amount of […] cells, and each plate was incubated in an incubator for 1 h at 37° C., 5% CO2.
(§16) 5) Each plate was read at 490 nm on a microplate reader, and the cell survivals were compared for test cells with or without the treatment of LDC conjugates. The LDC drug concentrations that are required for 50% cell death (IC50 values) were determined.

Series [12] has as its system breast cancer cell line HCC1954. The experiment in a line: Cytotoxicity test of conjugate LDC10B. It is filed as cell-based, human. The note with it: HCC1954, Incubation Time 30 min. How it is done: as §1, §12, §13, §14, §15, §16
The test system of series [13] is ovarian cancer cell SKOV3. Description: Cytotoxicity test of conjugate LDC11B. It is filed as cell-based, human. The note with it: SKOV3, incubated 15-30 min, then 2-3 days. How it is done: as §1, §9, §10, §4, §5, §11

Structures are written as SMILES. Square brackets hold non-standard residues; d marks the D form. Peptide text beside a SMILES is read from it. * marks the point of attachment. Dolaproine = CO[C@@H]([C@@H]1CCCN1)[C@@H](C)C(=O)O; Dil = CC[C@H](C)[C@H](NC)[C@@H](CC(=O)O)OC; X1 = C[C@@H](N*)[C@@H](O)c1ccccc1; NMeV = CN[C@H](C(=O)O)C(C)C

As to `CC[C@H](C)[C@@H]([C@@H](CC(=O)N1CCC[C@H]1[C@H](OC)[C@@H](C)C(=O)N[C@H](C)[C@@H](O)c1ccccc1)OC)N(C)C(=O)[C@@H](NC(=O)[C@@H](NC)C(C)C)C(C)C` [MMAE] (H-[NMeV]V[Dil][Dolaproine]-X1), the IC50 in series [1] worked out at 0.49 nM; in [2], 0.29 nM; in series [3], 3.83 nM; in [4], 6.38 nM; in [5], 28.8 nM; in series [6] it was 12.7 nM. Further, the IC50 in series [7] worked out at 8.74 nM; in [8] it was 12.8 nM; in series [9], 0.86 nM; in series [10], 0.58 nM; in series [11], 0.62 nM; in [12], 0.45 nM. The compound further displayed an IC50 in series [13] of 0.44 nM.
